What follows are compounds tested on Arabidopsis thaliana seed germination (assay: Arabidopsis seed germination assay (promotion of germination in the presence of (S)-ABA)). Conditions: 30 ppm compound in the presence of 0.3 ppm (S)-ABA; scored on day 14.
Type: in vivo
Parameters: key to Rating: Arabidopsis seed germination promotion activity: −: Seeds germinated at approximately the same time as those treated with 0.3 ppm of (S)-ABA alone (i.e., treatment with the 2′-vinyl-(S)-ABA derivative showed no measurable effect in this assay configuration).; +: Seeds germinated 1 to 4 days earlier than those treated with 0.3 ppm of (S)-ABA alone.; ++: Seeds germinated 5 to 7 days earlier than those treated with 0.3 ppm of (S)-ABA alone.; +++: Seeds germinated 8 to 10 days earlier than those treated with 0.3 ppm of (S)-ABA alone
Method: To determine whether the (S)-ABA derivatives of the present invention were effective antagonists, germination assays were performed with the model plant Arabidopsis thaliana. If the compounds are found to be antagonists, they may be useful to counter any undesirable side effects of (S)-ABA.
Arabidopsis seed was sterilized by shaking for five minutes in 200 proof ethanol, followed by shaking for five minutes in a 10% bleach solution. The seeds were then washed five times in sterile, distilled, de-ionized water and suspended in 0.1% phytoagar. The tubes containing the seeds were wrapped in aluminum foil and stratified at 4° C. for two days.
All compounds were tested at a concentration of 30 ppm in the presence or absence of 0.3 ppm (S)-ABA, in 24-well plates. For each compound, a 1000 ppm stock solution was prepared in distilled, deionized water containing 5% DMSO. The stock test solution (15 μL) was added to each well, plus or minus 1.5 μL of 100 ppm (S)-ABA in 5% DMSO. Appropriate amounts of distilled, de-ionized water was added to equalize volumes, and 450 μL of ½×Murashige and Skoog media containing 1.2% Bactoagar was then added to each well (final DMSO concentration was 0.5%). When the media solidified, ten to 15 sterile stratified Arabidopsis seeds were distributed into each well using a repeat pipettor. The plates were sealed with surgical tape and placed in a growth chamber running diurnal cycles of 12 hours of light at 24° C. and 12 hours of darkness at 19° C. The plates were scanned on days 3 through 14, and scored on day 14. The (S)-2′-vinyl-substituted ABA derivatives were scored on ability to promote germination in the presence of (S)-ABA. The results are summarized below in “Table 1: Arabidopsis seed germination promotion activity of 2′-vinyl-(S)-ABA derivatives.”

SMILES | Rating: Arabidopsis seed germination promotion activity
CC(=C/C(=O)O)/C=C/[C@@]1(O)C(/C=C/c2cccc(F)c2)=CC(=O)CC1(C)C [Compound 20] | ++ (Seeds germinated 5 to 7 days earlier than those treated with 0.3 ppm of (S)-ABA alone.)
CC(=C/C(=O)O)/C=C/[C@@]1(O)C(/C=C/c2c(F)cccc2Cl)=CC(=O)CC1(C)C [Compound 7] | ++ (Seeds germinated 5 to 7 days earlier than those treated with 0.3 ppm of (S)-ABA alone.)
CC(=C/C(=O)O)/C=C/[C@@]1(O)C(/C=C/c2ccccc2C(F)(F)F)=CC(=O)CC1(C)C [Compound 25] | ++ (Seeds germinated 5 to 7 days earlier than those treated with 0.3 ppm of (S)-ABA alone.)
CC(=C/C(=O)O)/C=C/[C@@]1(O)C(/C=C/c2cc(F)cc(F)c2)=CC(=O)CC1(C)C [Compound 24] | ++ (Seeds germinated 5 to 7 days earlier than those treated with 0.3 ppm of (S)-ABA alone.)
CC(=C/C(=O)O)/C=C/[C@@]1(O)C(/C=C/c2c(Cl)cccc2Cl)=CC(=O)CC1(C)C [Compound 5] | −
CC(=C/C(=O)O)/C=C/[C@@]1(O)C(/C=C/c2ccc(F)c(Cl)c2)=CC(=O)CC1(C)C [Compound 8] | +++ (Seeds germinated 8 to 10 days earlier than those treated with 0.3 ppm of (S)-ABA alone.)
COc1ccc(C(F)(F)F)cc1/C=C/C1=CC(=O)CC(C)(C)[C@@]1(O)/C=C/C(C)=C\C(=O)O [Compound 28] | ++ (Seeds germinated 5 to 7 days earlier than those treated with 0.3 ppm of (S)-ABA alone.)
COC(=O)/C=C(C)\C=C\[C@@]1(O)C(/C=C/c2ccc(Cl)cc2Cl)=CC(=O)CC1(C)C [Compound 15] | ++ (Seeds germinated 5 to 7 days earlier than those treated with 0.3 ppm of (S)-ABA alone.)
CC(=C/C(=O)O)/C=C/[C@@]1(O)C(/C=C/c2ccc(F)cc2F)=CC(=O)CC1(C)C [Compound 22] | ++ (Seeds germinated 5 to 7 days earlier than those treated with 0.3 ppm of (S)-ABA alone.)
COC(=O)/C=C(C)\C=C\[C@@]1(O)C(/C=C/c2ccc(OC)c(C#N)c2)=CC(=O)CC1(C)C [Compound 11] | −
CC(=C/C(=O)O)/C=C/[C@@]1(O)C(/C=C/c2ccco2)=CC(=O)CC1(C)C [Compound 33] | −
COC(=O)/C=C(C)\C=C\[C@@]1(O)C(/C=C/c2ccc(Cl)c(C(F)(F)F)c2)=CC(=O)CC1(C)C [Compound 14] | ++ (Seeds germinated 5 to 7 days earlier than those treated with 0.3 ppm of (S)-ABA alone.)
CC(=C/C(=O)O)/C=C/[C@@]1(O)C(/C=C/c2nccs2)=CC(=O)CC1(C)C [Compound 34] | −
CC(=C/C(=O)O)/C=C/[C@@]1(O)C(/C=C/c2ccc(C(F)(F)F)cc2F)=CC(=O)CC1(C)C [Compound 30] | ++ (Seeds germinated 5 to 7 days earlier than those treated with 0.3 ppm of (S)-ABA alone.)
CC(=C/C(=O)O)/C=C/[C@@]1(O)C(/C=C/c2ccc(F)cc2)=CC(=O)CC1(C)C [Compound 2] | + (Seeds germinated 1 to 4 days earlier than those treated with 0.3 ppm of (S)-ABA alone.)
COC(=O)/C=C(C)\C=C\[C@@]1(O)C(/C=C/c2ccc(Cl)c(F)c2)CC(=O)CC1(C)C (stereo partly drawn) [Compound 9] | ++ (Seeds germinated 5 to 7 days earlier than those treated with 0.3 ppm of (S)-ABA alone.)
CC(=C/C(=O)O)/C=C/[C@@]1(O)C(/C=C/c2ccncc2)=CC(=O)CC1(C)C [Compound 38] | −
CC(=C/C(=O)O)/C=C/[C@@]1(O)C(/C=C/c2cccc(Cl)c2)=CC(=O)CC1(C)C [Compound 17] | −
CC(=C/C(=O)O)/C=C/[C@@]1(O)C(/C=C/c2cccc(C(F)(F)F)c2F)=CC(=O)CC1(C)C [Compound 31] | +++ (Seeds germinated 8 to 10 days earlier than those treated with 0.3 ppm of (S)-ABA alone.)

SMILES | Rating: Arabidopsis seed germination promotion activity
CC(=C/C(=O)O)/C=C/[C@@]1(O)C(/C=C/c2cc(F)cc(C(F)(F)F)c2)=CC(=O)CC1(C)C [Compound 29] | ++ (Seeds germinated 5 to 7 days earlier than those treated with 0.3 ppm of (S)-ABA alone.)
COC(=O)/C=C(C)\C=C\[C@@]1(O)C(/C=C/c2ccccc2F)=CC(=O)CC1(C)C [Compound 10] | −
CC(=C/C(=O)O)/C=C/[C@@]1(O)C(/C=C/c2ccccn2)=CC(=O)CC1(C)C [Compound 36] | −
CC(=C/C(=O)O)/C=C/[C@@]1(O)C(/C=C/c2ccc(C(F)(F)F)cc2)=CC(=O)CC1(C)C [Compound 26] | +++ (Seeds germinated 8 to 10 days earlier than those treated with 0.3 ppm of (S)-ABA alone.)
CC(=C/C(=O)O)/C=C/[C@@]1(O)C(/C=C/c2c(F)cccc2F)=CC(=O)CC1(C)C [Compound 6] | −
CC(=C/C(=O)O)/C=C/[C@@]1(O)C(/C=C/c2ccc(Cl)c(Cl)c2)=CC(=O)CC1(C)C [Compound 19] | ++ (Seeds germinated 5 to 7 days earlier than those treated with 0.3 ppm of (S)-ABA alone.)
CC(=C/C(=O)O)/C=C/[C@@]1(O)C(/C=C/c2cncs2)=CC(=O)CC1(C)C [Compound 35] | −
CC(=C/C(=O)O)/C=C/[C@@]1(O)C(/C=C/c2ccc(Cl)cc2)=CC(=O)CC1(C)C [Compound 18] | +++ (Seeds germinated 8 to 10 days earlier than those treated with 0.3 ppm of (S)-ABA alone.)
CC(=C/C(=O)O)/C=C/[C@@]1(O)C(/C=C/c2cc(C(F)(F)F)ccc2Cl)=CC(=O)CC1(C)C [Compound 1] | ++ (Seeds germinated 5 to 7 days earlier than those treated with 0.3 ppm of (S)-ABA alone.)
CC(=C/C(=O)O)/C=C/[C@@]1(O)C(/C=C/c2cc(C(F)(F)F)ccc2F)=CC(=O)CC1(C)C [Compound 27] | ++ (Seeds germinated 5 to 7 days earlier than those treated with 0.3 ppm of (S)-ABA alone.)
COC(=O)/C=C(C)\C=C\[C@@]1(O)C(/C=C/c2cccc(C(F)(F)F)c2Cl)=CC(=O)CC1(C)C [Compound 13] | + (Seeds germinated 1 to 4 days earlier than those treated with 0.3 ppm of (S)-ABA alone.)
CC(=C/C(=O)O)/C=C/[C@@]1(O)C(/C=C/c2cccc(C(F)(F)F)c2)=CC(=O)CC1(C)C [Compound 21] | + (Seeds germinated 1 to 4 days earlier than those treated with 0.3 ppm of (S)-ABA alone.)
CC(=C/C(=O)O)/C=C/[C@@]1(O)C(/C=C/c2cccc(C#N)c2)=CC(=O)CC1(C)C [Compound 32] | −
CC(=C/C(=O)O)/C=C/[C@@]1(O)C(/C=C/c2ccc(C)cc2)=CC(=O)CC1(C)C [Compound 4] | +++ (Seeds germinated 8 to 10 days earlier than those treated with 0.3 ppm of (S)-ABA alone.)
COC(=O)/C=C(C)\C=C\[C@@]1(O)C(/C=C/c2ccccc2Cl)=CC(=O)CC1(C)C [Compound 12] | + (Seeds germinated 1 to 4 days earlier than those treated with 0.3 ppm of (S)-ABA alone.)
CC(=C/C(=O)O)/C=C/[C@@]1(O)C(/C=C/c2cccnc2)=CC(=O)CC1(C)C [Compound 37] | −
CC1=CC(=O)CC(C)(C)[C@@]1(O)/C=C/C(C)=C/C(=O)O [(S)-ABA, (S)-abscisic acid, reference compound] | −
CC(=C/C(=O)O)/C=C/[C@@]1(O)C(/C=C/c2ccc(C#N)cc2)=CC(=O)CC1(C)C [Compound 3] | ++ (Seeds germinated 5 to 7 days earlier than those treated with 0.3 ppm of (S)-ABA alone.)

Same assay, conditions: seed germination assay, 30 ppm with 0.3 ppm (S)-ABA

SMILES | antagonist nature compared to (S)-ABA
CC(=C/C(=O)O)/C=C/[C@@]1(O)C(/C=C/c2ccc(F)c(Cl)c2)=CC(=O)CC1(C)C [Compound 8] | antagonists of (S)-ABA
CC(=C/C(=O)O)/C=C/[C@@]1(O)C(/C=C/c2cccc(C(F)(F)F)c2F)=CC(=O)CC1(C)C [Compound 31] | antagonists of (S)-ABA
CC(=C/C(=O)O)/C=C/[C@@]1(O)C(/C=C/c2ccc(C(F)(F)F)cc2)=CC(=O)CC1(C)C [Compound 26] | antagonists of (S)-ABA
CC(=C/C(=O)O)/C=C/[C@@]1(O)C(/C=C/c2ccc(Cl)cc2)=CC(=O)CC1(C)C [Compound 18] | antagonists of (S)-ABA
CC(=C/C(=O)O)/C=C/[C@@]1(O)C(/C=C/c2ccc(C)cc2)=CC(=O)CC1(C)C [Compound 4] | antagonists of (S)-ABA
